From US10744201B2, “Method for treating rheumatoid arthritis with a human IL-6 receptor antibody and methotrexate” (Chugai Seiyaku Kabushiki Kaisha, priority 2003, dated 2020)

Legend:
[1] = tested on: patients with active rheumatoid arthritis; experiment: Phase II trial of MRA alone and with methotrexate: ACR 20/50/70 improvement rates; format: in vivo, human; conditions: for ACR 20 / ACR 50 / ACR 70: 16 weeks
Experimental: (§1) The efficacy, safety and tolerability of MRA were assessed.
Study design: a double-blind, randomized, parallel group study by central randomization method
ACR improvement criteria: The cases where among the following 7 items, the number of swelling joints and the number of pain joints are improved by 20% or more and improvement by 20% or more is observed in three out of the remaining five items are determined as 20% or more improvement in ACR criteria. Further, 50% and 70% improvement cases indicate the patient cases where the above 20% improved parts are improved by 50% and 70%, respectively.
(1) Number of swelling joints
(2) Number of tender joints
(3) Pain assessment by a patient
(4) Global assessment of disease activity by a patient
(5) Global disease activity by a physician
(6) Assessment of physical function by a patient

[2] = tested on: patients with active rheumatoid arthritis; experiment: Phase II trial: reduction of swollen joint count; format: in vivo, human
Experimental: as §1
Reduction of Swollen Joint Count (Table 2)
The mean swollen joint count was similar across all the treatment groups at baseline.

[3] = tested on: patients with active rheumatoid arthritis; experiment: Phase II trial: safety (adverse events, laboratory data, infusion reaction); conditions: for serious adverse events of which causal relationship could not be denied: hypersensitivity: no combination with MTX, after the 3rd or 4th MRA administration
Experimental: Subjects: Patients with rheumatoid arthritis diagnosed based on the 1987 disease classification of the American College of Rheumatology (ACR), of at least 6 months duration were enrolled.
Dosage and Administration: Seven groups: 0 mg/kg (placebo)+MTX, 2 mg/kg MRA+MTX, 4 mg/kg MRA+MTX, 8 mg/kg MRA+MTX, 2 mg/kg MRA+MTX placebo, 4 mg/kg MRA+MTX placebo, and 8 mg/kg MRA+MTX placebo. MRA or placebo administration is given by intravenous infusion, at 4-week intervals. MTX or MTX placebo administration is given orally, once weekly, at 10-25 mg/week.
Study Method: The assigned dose was administered by intravenous infusion, four times in total at 4-week intervals, and efficacy and safety were evaluated at 2-week intervals up to 16 weeks, and follow-up observation was done at 20 weeks. The primary endpoint for efficacy was the rate of ACR 20 at 16 weeks (4 weeks after the last dose). Secondary endpoints included rates of ACR 50 and ACR 70 at 16 weeks (4 weeks after the last dose).
Among 359 enrolled patients, the safety evaluation sets, the full analysis sets, and PPS (per protocol set) were 359, 354, and 307, respectively.
An infusion reaction was defined as an adverse event occurring within 24 hours of study drug administration.

[4] = tested on: patients with active rheumatoid arthritis; experiment: Phase II trial: development of anti-MRA antibodies; format: in vivo, human; conditions: 8 mg/kg treatment groups
Experimental: as §1
The development of anti-MRA antibodies was examined. None occurred at the 8 mg/kg treatment groups (monotherapy or combination with MTX). At 2 or 4 mg/kg treatment groups, the number of incidents was less in groups in combination with MTX than MRA monotherapy groups.

[5] = 0 mg/kg (placebo)+MTX 10-25 mg/week oral (control group)
[6] = 2 mg/kg MRA i.v. at 4-week intervals x4, with MTX or MTX placebo 10-25 mg/week oral
[7] = 4 mg/kg MRA i.v. at 4-week intervals x4, with MTX or MTX placebo 10-25 mg/week oral
[8] = 8 mg/kg MRA i.v. at 4-week intervals x4, with MTX or MTX placebo 10-25 mg/week oral

Compound: CN(Cc1cnc2nc(N)nc(N)c2n1)c1ccc(C(=O)N[C@@H](CCC(=O)O)C(=O)O)cc1 [MTX, methotrexate]
- ACR 20 [1, 5]: 40.8%
- ACR 50 [1, 5]: 28.6%
- ACR 70 [1, 5]: 16.3%
- Swollen joint count, Change from Baseline, Mean ± SD ([2]; MTX alone (MRA placebo), Week 16): −5.7 ± 6.1

Compound: MRA: recombinant humanised anti-human interleukin-6 receptor monoclonal antibody of the IgG1 sub-class that inhibits the function of IL-6
- ACR 20 [1, 6]: 30.8%
- ACR 50 [1, 6]: 5.8%
- ACR 70 [1, 6]: 1.9%
- ACR 20 [1, 7]: 61.1%
- ACR 50 [1, 7]: 27.8%
- ACR 70 [1, 7]: 5.6%
- ACR 20 [1, 8]: 62.7%
- ACR 50 [1, 8]: 41.2%
- ACR 70 [1, 8]: 15.7%
- dose dependency in ACR 20 improvement rate ([1]; 2, 4, 8 mg/kg MRA alone groups): statistically significant dose dependency
- dose dependent response for ACR50 and ACR70 improvement rate ([1]; 2, 4, 8 mg/kg MRA, alone and MTX-combined groups): statistically significant dose dependent response
- dose-response (overall result) ([1]; in vivo): clear dose-response
- effectiveness to treat patients with rheumatoid arthritis ([1]; in vivo): confirmed
- Swollen joint count, Change from Baseline, Mean ± SD ([2]; 2 mg/kg MRA, with MTX or MTX placebo, Week 16): −4.5 ± 5.7
- Swollen joint count, Change from Baseline, Mean ± SD ([2]; 4 mg/kg MRA, with MTX or MTX placebo, Week 16): −5.8 ± 4.1
- Swollen joint count, mean difference (95% CI) to the MTX group ([2]; 8 mg/kg MRA group vs MTX group, Week 16): −2.31 (−4.07, −0.55)
- Swollen joint count, Change from Baseline, Mean ± SD ([2]; 8 mg/kg MRA, with MTX or MTX placebo, Week 16): −8.4 ± 4.6
- linear dose-relationship of reduction in swollen joint count ([2]; 2, 4, 8 mg/kg MRA groups, monotherapy p<0.001, combination p=0.004): statistically significant linear dose-relationship
- serious adverse events of which causal relationship could not be denied: hypersensitivity ([3]; 2 mg/kg MRA group): four patients of hypersensitivity
- serious adverse events of which causal relationship could not be denied: hypersensitivity ([3]; 4 mg/kg MRA group): one patient of hypersensitivity
- Atherogenic Index ([3]; MRA groups): no overall change
- laboratory data relating to lipids (total cholesterol, HDL cholesterol and triglyceride) ([3]; MRA groups): increase
- number of patients experiencing an infusion reaction (adverse event within 24 hours of study drug administration) ([3]; across treatment groups): possible inverse dose-response
- ALT and AST levels (hepatic functions) ([3]; equivalent to elevations observed in other patients with rheumatoid arthritis): elevation
- CRP and ESR (parameters for disease activity) ([3]; in a dose dependent manner): decreases of CRP and ESR
- hemoglobin (parameter for disease activity) ([3]; in a dose dependent manner): elevation of hemoglobin
- neutrophil count ([3]; in some patients): Slight transient decrease
- safety ([3]; in vivo): confirmed
- development of anti-MRA antibodies [4]: None
